Data as given in patent US20050142531A1, “Peptidically buffered formulations for electrotransport applications and methods of making” (priority 2003, published 2005).
Square brackets hold non-standard residues; d marks the D form. Peptide text beside a SMILES is read from it. Cit = NC(=O)NCCC[C@H](N)C(=O)O; Orn = NCCC[C@H](N)C(=O)O

Experiment: pKa, pI and % salt of peptidic buffers
Assay type: physicochemical

| Structure (SMILES) | pka A (acidic pKa) (Table 2, first acidic pKa) | pka B (basic pKa) (Table 2, first basic pKa) | pka A (acidic pKa) (Table 2, second acidic pKa) | pka B (basic pKa) (Table 2, second basic pKa) | pka B (basic pKa) (Table 2, third basic pKa) |
| --- | --- | --- | --- | --- | --- |
| NCC(=O)N[C@@H](CC(=O)O)C(=O)O [Gly-Asp] (H-Gly-Asp-OH; N-terminus and C-terminus assumed) | 2.81 | 8.60 | 4.45 |  |  |
| NC(=O)C[C@H](NC(=O)[C@@H](N)Cc1c[nH]cn1)C(=O)O [His-Asn] (H-His-Asn-OH; N-terminus and C-terminus assumed) | 2.62 | 6.10 |  | 7.80 |  |
| NC(=O)NCCC[C@H](NC(=O)[C@@H](N)Cc1c[nH]cn1)C(=O)O [His-Citrulline] (H-His-[Cit]-OH; N-terminus and C-terminus assumed) | 3.05 | 6.10 |  | 7.80 |  |
| NC(=O)CC[C@H](NC(=O)[C@@H](N)Cc1c[nH]cn1)C(=O)O [His-Gln] (H-His-Gln-OH; N-terminus and C-terminus assumed) | 2.93 | 6.10 |  | 7.80 |  |
| N[C@@H](Cc1c[nH]cn1)C(=O)N[C@@H](Cc1c[nH]cn1)C(=O)O [His-His] | 2.25 | 5.40 |  | 6.80 | 7.95 |
| NCC(O)CC[C@H](NC(=O)[C@@H](N)Cc1c[nH]cn1)C(=O)O (stereo partly shown) [His-Hydroxylysine] | 3.05 | 6.10 |  | 7.80 | 9.70 |
| N[C@@H](Cc1c[nH]cn1)C(=O)N1CC(O)C[C@H]1C(=O)O (stereo partly shown) [His-Hydroxyproline] | 2.42 | 6.10 |  | 7.80 |  |
| CC[C@H](C)[C@H](NC(=O)[C@@H](N)Cc1c[nH]cn1)C(=O)O [His-Isoleucine] (H-His-Ile-OH; N-terminus and C-terminus assumed) | 3.13 | 6.10 |  | 7.80 |  |
| CC(C)C[C@H](NC(=O)[C@@H](N)Cc1c[nH]cn1)C(=O)O [His-Leu] (H-His-Leu-OH; N-terminus and C-terminus assumed) | 3.10 | 6.10 |  | 7.80 |  |
| N[C@@H](Cc1c[nH]cn1)C(=O)N1CCC[C@H]1C(=O)O [His-Pro] | 2.62 | 6.10 |  | 7.80 |  |

The next lines start with the values.

| pka A (acidic pKa) (Table 2, first acidic pKa) | pka B (basic pKa) (Table 2, first basic pKa) | pka A (acidic pKa) (Table 2, second acidic pKa) | pka B (basic pKa) (Table 2, second basic pKa) | pka B (basic pKa) (Table 2, third basic pKa) | Structure (SMILES) |
| --- | --- | --- | --- | --- | --- |
| 3.05 | 6.10 |  | 7.80 | 11.00 | NCCCC[C@H](NC(=O)[C@@H](N)Cc1c[nH]cn1)C(=O)O [His-Lys] (H-His-Lys-OH; N-terminus and C-terminus assumed) |
| 2.89 | 6.10 |  | 7.80 |  | CSCC[C@H](NC(=O)[C@@H](N)Cc1c[nH]cn1)C(=O)O [His-Met] (H-His-Met-OH; N-terminus and C-terminus assumed) |
| 2.82 | 6.10 |  | 7.80 | 11.00 | NCCC[C@H](NC(=O)[C@@H](N)Cc1c[nH]cn1)C(=O)O [His-Ornithine] (H-His-[Orn]-OH; N-terminus and C-terminus assumed) |
| 2.88 | 6.10 |  | 7.80 |  | N[C@@H](Cc1c[nH]cn1)C(=O)N[C@@H](Cc1ccccc1)C(=O)O [His-Phe] (H-His-Phe-OH; N-terminus and C-terminus assumed) |
| 2.65 | 6.10 |  | 7.80 |  | N[C@@H](Cc1c[nH]cn1)C(=O)N[C@@H](CO)C(=O)O [His-Ser] (H-His-Ser-OH; N-terminus and C-terminus assumed) |
| 2.98 | 6.10 |  | 7.80 |  | C[C@@H](O)[C@H](NC(=O)[C@@H](N)Cc1c[nH]cn1)C(=O)O [His-Thr] (H-His-Thr-OH; N-terminus and C-terminus assumed) |
| 3.07 | 6.10 |  | 7.80 |  | N[C@@H](Cc1c[nH]cn1)C(=O)N[C@@H](Cc1c[nH]c2ccccc12)C(=O)O [His-Trp] |
| 2.13 | 6.10 | 9.97 | 7.80 |  | N[C@@H](Cc1c[nH]cn1)C(=O)N[C@@H](Cc1ccc(O)cc1)C(=O)O [His-Tyr] (H-His-Tyr-OH; N-terminus and C-terminus assumed) |
| 3.18 | 6.10 |  | 7.80 |  | CC(C)[C@H](NC(=O)[C@@H](N)Cc1c[nH]cn1)C(=O)O [His-Val] (H-His-Val-OH; N-terminus and C-terminus assumed) |
| 2.42 | 6.71 |  | 7.40 | 9.70 | NCC(O)CC[C@H](N)C(=O)N[C@@H](Cc1c[nH]cn1)C(=O)O (stereo partly shown) [Hydroxylysine-His] |
| 2.42 | 6.71 |  | 8.23 |  | O=C(O)[C@H](Cc1c[nH]cn1)NC(=O)[C@@H]1CC(O)CN1 (stereo partly shown) [Hydroxyproline-His] |
| 2.42 | 6.71 |  | 8.20 |  | CC[C@H](C)[C@H](N)C(=O)N[C@@H](Cc1c[nH]cn1)C(=O)O [Isoleucine-His] (H-Ile-His-OH; N-terminus and C-terminus assumed) |
| 2.42 | 6.71 |  | 8.25 |  | CC(C)C[C@H](N)C(=O)N[C@@H](Cc1c[nH]cn1)C(=O)O [Leu-His] (H-Leu-His-OH; N-terminus and C-terminus assumed) |
| 2.42 | 6.71 |  | 8.00 | 11.00 | NCCCC[C@H](N)C(=O)N[C@@H](Cc1c[nH]cn1)C(=O)O [Lys-His] |
| 2.42 | 6.71 |  | 7.97 |  | CSCC[C@H](N)C(=O)N[C@@H](Cc1c[nH]cn1)C(=O)O [Met-His] (H-Met-His-OH; N-terminus and C-terminus assumed) |
